We go through 6 cell lines from the supplement of paper PMC10307832.

Holding throughout (test): relative viability (nuclei count vs DMSO), 5 days (fraction); higher = more cells survive
Compound in one assay: CCOc1cc2ncc(C#N)c(Nc3ccc(OCc4ccccn4)c(Cl)c3)c2cc1NC(=O)/C=C/CN(C)C [Neratinib]
The gist of the method:
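Vehicle-anchored 1536-well plates of lung cancer cell lines, held overnight at 37 °C, were pinned with five library-drug doses (not always all listed) spaced by √10. No medium change followed over the next 5 days, after which the cells were fixed, permeabilised and Hoechst-stained together and imaged at 4×. Nuclei were counted with MetaXpress, and viability is treated-well nuclei over vehicle-well nuclei, taken as a median across plates. Plates passed with control CV below 25% and at least one doubling.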

Compound in the assay “Neratinib + Trametinib”: CCOc1cc2ncc(C#N)c(Nc3ccc(OCc4ccccn4)c(Cl)c3)c2cc1NC(=O)/C=C/CN(C)C [Neratinib] + CC(=O)Nc1cccc(-n2c(=O)n(C3CC3)c(=O)c3c(Nc4ccc(I)cc4F)n(C)c(=O)c(C)c32)c1 [Trametinib] (partner 0.02 µM)
A digest of the protocol: (§1)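 Relative viability was taken as the ratio of nuclei in treated wells to nuclei in vehicle wells. Lung cancer cell lines in 1536-well plates received compounds by pin tool one day after seeding, either one drug alone or a fixed anchor-drug dose plus five library-drug doses (not always all listed) in √10 steps. Nuclei were counted on 4× images after 5 days of treatment, and values are medians of duplicate plates.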

Compound in the assay “Neratinib + Tozasertib”: CCOc1cc2ncc(C#N)c(Nc3ccc(OCc4ccccn4)c(Cl)c3)c2cc1NC(=O)/C=C/CN(C)C [Neratinib] + Cc1cc(Nc2cc(N3CCN(C)CC3)nc(Sc3ccc(NC(=O)C4CC4)cc3)n2)n[nH]1 [Tozasertib] (partner 0.1 µM)
The gist of the method:
as §1

Compound in the assay “Neratinib + AZD7762”: CCOc1cc2ncc(C#N)c(Nc3ccc(OCc4ccccn4)c(Cl)c3)c2cc1NC(=O)/C=C/CN(C)C [Neratinib] + NC(=O)Nc1cc(-c2cccc(F)c2)sc1C(=O)N[C@H]1CCCNC1 [AZD7762] (partner 0.2 µM)
A digest of the protocol: as §1

For the cell line NCI-H2085, the relative viability with Neratinib (0.01 µM) was determined as 0.977; with Neratinib (0.03162 µM) it was 1.01; with Neratinib (0.1 µM) it was 0.871; with Neratinib (0.3162 µM), 0.891; in the assay with Neratinib (1 µM) it was 0.814; with Neratinib + Trametinib (first compound 0.01 µM), 0.605. For the same cell line, the relative viability in the assay with Neratinib + Trametinib (first compound 0.03162 µM) was 0.698; with Neratinib + Trametinib (first compound 0.1 µM), 0.545; in the assay with Neratinib + Trametinib (first compound 0.3162 µM) it was 0.397; in the assay with Neratinib + Trametinib (first compound 1 µM), 0.315; with Neratinib + Tozasertib (first compound 0.01 µM), 0.729; with Neratinib + Tozasertib (first compound 0.03162 µM) it was 0.909. In addition, the relative viability in the assay with Neratinib + Tozasertib (first compound 0.1 µM) was 0.716; in the assay with Neratinib + Tozasertib (first compound 0.3162 µM), 0.675; with Neratinib + Tozasertib (first compound 1 µM), 0.458; in the assay with Neratinib + AZD7762 (first compound 0.01 µM), 0.924; with Neratinib + AZD7762 (first compound 0.03162 µM), 1.04; with Neratinib + AZD7762 (first compound 0.1 µM) it was 0.933. In the assay with Neratinib + AZD7762 (first compound 0.3162 µM), the relative viability worked out at 0.746.

For the cell line NCI-H1734, the relative viability came to 1.05 with Neratinib (0.01 µM); 1.05 with Neratinib (0.03162 µM); 0.914 in the assay with Neratinib (0.1 µM); 0.929 with Neratinib (0.3162 µM); 0.734 in the assay with Neratinib (1 µM); 0.781 with Neratinib + Trametinib (first compound 0.01 µM). The relative viability with Neratinib + Trametinib (first compound 0.03162 µM) came out at 0.788; with Neratinib + Trametinib (first compound 0.1 µM), 0.587; with Neratinib + Trametinib (first compound 1 µM), 0.503; in the assay with Neratinib + Tozasertib (first compound 0.01 µM), 0.231; with Neratinib + Tozasertib (first compound 0.03162 µM), 0.281; with Neratinib + Tozasertib (first compound 0.1 µM), 0.168. Further, the relative viability with Neratinib + Tozasertib (first compound 0.3162 µM) stood at 0.266; with Neratinib + Tozasertib (first compound 1 µM), 0.212; with Neratinib + AZD7762 (first compound 0.01 µM) it was 0.584; with Neratinib + AZD7762 (first compound 0.03162 µM), 0.555; in the assay with Neratinib + AZD7762 (first compound 0.1 µM) it was 0.457; with Neratinib + AZD7762 (first compound 0.3162 µM), 0.505. In the assay with Neratinib + AZD7762 (first compound 1 µM), the relative viability is 0.36.

Regarding NCI-H322M, the relative viability came out at 0.956 with Neratinib (0.01 µM); 0.926 in the assay with Neratinib (0.03162 µM); 0.784 with Neratinib (0.1 µM); 0.491 with Neratinib (0.3162 µM); 0.288 with Neratinib (1 µM); 0.519 in the assay with Neratinib + Trametinib (first compound 0.01 µM). The relative viability with Neratinib + Trametinib (first compound 0.03162 µM) amounted to 0.486; with Neratinib + Trametinib (first compound 0.1 µM), 0.506; with Neratinib + Trametinib (first compound 0.3162 µM), 0.488; in the assay with Neratinib + Trametinib (first compound 1 µM), 0.373; with Neratinib + Tozasertib (first compound 0.01 µM), 0.502; with Neratinib + Tozasertib (first compound 0.03162 µM) it was 0.47. For the same cell line, the relative viability with Neratinib + Tozasertib (first compound 0.1 µM) was found to be 0.451; with Neratinib + Tozasertib (first compound 0.3162 µM) it was 0.33; with Neratinib + Tozasertib (first compound 1 µM), 0.284; with Neratinib + AZD7762 (first compound 0.01 µM), 0.49; with Neratinib + AZD7762 (first compound 0.03162 µM) it was 0.544; with Neratinib + AZD7762 (first compound 0.1 µM), 0.503. The relative viability with Neratinib + AZD7762 (first compound 0.3162 µM) amounted to 0.409; in the assay with Neratinib + AZD7762 (first compound 1 µM), 0.437.

For CAL-12T, the relative viability with Neratinib (0.01 µM) turned out to be 1.06; in the assay with Neratinib (0.03162 µM) it was 1.09; with Neratinib (0.1 µM) it was 0.868; in the assay with Neratinib (0.3162 µM), 0.631; in the assay with Neratinib (1 µM), 0.301; with Neratinib + Trametinib (first compound 0.01 µM), 0.322. Also, the relative viability amounted to 0.322 with Neratinib + Trametinib (first compound 0.03162 µM); 0.236 with Neratinib + Trametinib (first compound 0.1 µM); 0.254 with Neratinib + Trametinib (first compound 0.3162 µM); 0.223 with Neratinib + Trametinib (first compound 1 µM); 0.487 with Neratinib + Tozasertib (first compound 0.01 µM); 0.288 in the assay with Neratinib + Tozasertib (first compound 0.03162 µM). In addition, the relative viability in the assay with Neratinib + Tozasertib (first compound 0.1 µM) came out at 0.249; in the assay with Neratinib + Tozasertib (first compound 0.3162 µM), 0.178; with Neratinib + Tozasertib (first compound 1 µM), 0.122; in the assay with Neratinib + AZD7762 (first compound 0.01 µM), 0.616; in the assay with Neratinib + AZD7762 (first compound 0.03162 µM), 0.695; in the assay with Neratinib + AZD7762 (first compound 0.1 µM), 0.556. Further, the relative viability with Neratinib + AZD7762 (first compound 1 µM) amounted to 0.646.

Consider HCC-78, for which the relative viability with Neratinib (0.01 µM) is 1.07; with Neratinib (0.03162 µM) it was 1.03; with Neratinib (0.1 µM) it was 0.892; with Neratinib (0.3162 µM) it was 0.87; with Neratinib (1 µM) it was 0.475; with Neratinib + Trametinib (first compound 0.01 µM) it was 0.901. Besides, the relative viability in the assay with Neratinib + Trametinib (first compound 0.03162 µM) came out at 0.668; in the assay with Neratinib + Trametinib (first compound 0.1 µM) it was 0.678; with Neratinib + Trametinib (first compound 0.3162 µM), 0.731; in the assay with Neratinib + Trametinib (first compound 1 µM), 0.296; with Neratinib + Tozasertib (first compound 0.01 µM), 0.584; with Neratinib + Tozasertib (first compound 0.03162 µM) it was 0.373. Also, the relative viability came out at 0.401 with Neratinib + Tozasertib (first compound 0.1 µM); 0.379 with Neratinib + Tozasertib (first compound 0.3162 µM); 0.238 in the assay with Neratinib + Tozasertib (first compound 1 µM); 0.797 in the assay with Neratinib + AZD7762 (first compound 0.01 µM); 0.602 with Neratinib + AZD7762 (first compound 0.03162 µM); 0.541 in the assay with Neratinib + AZD7762 (first compound 0.1 µM). Moreover, the relative viability with Neratinib + AZD7762 (first compound 0.3162 µM) amounted to 0.424; in the assay with Neratinib + AZD7762 (first compound 1 µM), 0.415.

As to NCI-H2087, the relative viability with Neratinib (0.01 µM) worked out at 1.15; with Neratinib (0.03162 µM) it was 0.894; in the assay with Neratinib (0.1 µM), 0.829; with Neratinib (0.3162 µM), 0.883; with Neratinib (1 µM), 0.644; in the assay with Neratinib + Trametinib (first compound 0.01 µM), 0.19. For the same cell line, the relative viability in the assay with Neratinib + Trametinib (first compound 0.03162 µM) is 0.173; with Neratinib + Trametinib (first compound 0.1 µM), 0.15; with Neratinib + Trametinib (first compound 0.3162 µM), 0.194; in the assay with Neratinib + Trametinib (first compound 1 µM), 0.16; with Neratinib + Tozasertib (first compound 0.01 µM) it was 0.239; in the assay with Neratinib + Tozasertib (first compound 0.03162 µM), 0.274. Besides, the relative viability with Neratinib + Tozasertib (first compound 0.1 µM) turned out to be 0.197; with Neratinib + Tozasertib (first compound 0.3162 µM), 0.193; with Neratinib + Tozasertib (first compound 1 µM) it was 0.134; with Neratinib + AZD7762 (first compound 0.01 µM) it was 1.36; in the assay with Neratinib + AZD7762 (first compound 0.03162 µM) it was 1.29; in the assay with Neratinib + AZD7762 (first compound 0.1 µM) it was 0.985. The relative viability was 1.24 with Neratinib + AZD7762 (first compound 0.3162 µM) and 0.694 with Neratinib + AZD7762 (first compound 1 µM).
